According to paper PMC9304322, “Targeting retinoic acid receptor alpha-corepressor interaction activates chaperone-mediated autophagy and protects against retinal degeneration” (Nature Communications, 2022):

Tested on: rd10 mice
Experiment: rd10 mice, daily i.p. injection, retina histology and biochemistry
Format: in vivo, mouse
Details: daily i.p. 40 mg/kg bw, P18 to P25
Procedure: C57BL/6 J mice wild-type (WT) and homozygous for the Pde6 mutation (rd10 mouse model of retinal degeneration) were obtained from The Jackson Laboratory and experiments were performed at the age indicated in each part of the study. C57BL/6 KFERQ-Dendra mice were generated by back-crossing FVB KFERQ-Dendra mice with wild-type C57BL/6 mice for 8 generations. Both male and female animals were used in this study in equally distribution groups. However, results from both sexes were pooled, because of absence of significant differences in any of the parameters analyzed after statistical analysis with a mixed model of two-way ANOVA sex and treatment as independent variables and the corresponding measure as dependent variable. All animals were housed in a barrier-controlled facility (19–23 °C 30–60% relative humidity; 12 h light/dark cycle) with ad libitum access to standard chow pellets (protein 19 gm%/carbohydrate 67 gm%/fat 4 gm%) and water. For animal administration of CA compounds, a formula containing 30% PEG 400 (Sigma, #8.0745), 65% of 5% glucose solution, 5% Tween 80 (Sigma, #P1754) was used to dissolve them. CA compounds were prepared freshly by adding 5% DMSO and sonicating for 1 h. Treatment of KFERQ-Dendra mice with the CA compounds was done at 4 months of age by i.p. daily injection of 30 mg/kg bw or vehicle for three consecutive days and tissues collected 6 h after the last injection. In the case of rd10 mice, animals were daily injected from P18 to P25 with CA77 (40 mg/kg bw). In the case of intravitreal administration, a single intravitreal injection was applied at P18 with CA77 (40 µM) in DMSO/PBS and the contralateral eye was injected with PBS and DMSO at same concentration. At P26, mice were sacrificed and eyes fixed overnight with 4% PFA (Sigma, #P6148) in PBS at 4 °C for immunofluorescence or retinas dissected and immediately frozen for biochemistry. Distribution of animals in the vehicle or treatment group was done randomly. ICR (CD-1) outbred 3 months old male mice from ENVIGO were used for the pharmacokinetic studies (see pharmacokinetic section for housing and handling details). All animal studies and procedures complied with ethical regulations, were performed in accordance with the European Union guidelines and the ARVO Statement for the Use of Animals in Ophthalmic and Vision Research and were approved by the Institutional Animal Care and Use Committee at the Albert Einstein College of Medicine, the CSIC Bioetica Comite and approved by the Comunidad de Madrid, PROEX232/17.
12 μm cryosections and immunofluorescence in retinal sections[10] after orienting retinas with a dorsal mark, so comparisons were performed taking into account the precise retinal area. Primary antibodies used in this study were visual (rod) arrestin, cone arrestin, Opsin R/G, transducin, GFAP, N-CoR1. Sections were visualized by confocal microscopy (TCS SP5; Leica Microsystems).
For ONL thickness quantification, DAPI images were taken at 40X in a fluorescence microscope Multidimensional system Leica AF6000 LX coupled to DMI600B microscope and Hamamatsu CCD 9100-O2 camera. At least two sections per animal were analyzed, preferably central sections. Eight images per retina equally distributed along the retina were acquired. Three measures were taken per image and ratio ONL/INL quantified with ImageJ tools. Leica LAS-X (3.7.4.23463) was used for image acquisition and ImageJ (v.2.1.0) was used for image processing. For OS length measures, fixed positions common to all pictures were considered and OS length was measured using ImageJ straight line tool.
RNA was extracted from individual retinas or tissue sections (brain, liver). Total RNA from retinas was extracted using TRIzol Reagent (Invitrogen, # 15596-018), and reverse transcription was performed using the High-Capacity cDNA Reverse Transcription Kit (Applied Biosystems, # 4374966) according to the manufacturer’s instructions. […]

For `CC(=O)Nc1ccc(C2=Nc3ccc(Cl)cc3OC2)cc1` [CA77], the “expression levels of NCOR1” value (WT and rd10 mice) was “did not change the expression levels of NCOR1”, the “mRNA levels of photoreceptor-specific proteins (rhodopsin)” value (rd10 mice) was “Higher mRNA levels of photoreceptor-specific proteins” and the “outer nuclear layer (ONL) thickness” value (rd10 mice) was “significantly thicker outer nuclear layers”. For the same compound, the “retinal GFAP levels” value (rd10 mice) was “strikingly lower levels of GFAP”, the “retinal L2A levels by immunoblot” value (rd10 mice) was “significantly increasing retinal levels of the limiting CMA component” and the “length of the outer segments of photoreceptors” value (rd10 mice, vs vehicle) was “increased length of the outer segments of photoreceptors”.
